Test results: the supplement of paper PMC10307832

Legend:
Experiment in all cases: relative viability (nuclei count vs DMSO), 5 days (fraction); higher = more cells survive
Cabozantinib = compound: COc1cc2nccc(Oc3ccc(NC(=O)C4(C(=O)Nc5ccc(F)cc5)CC4)cc3)c2cc1OC [Cabozantinib]
How it was run: (§1)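 On vehicle-anchored 1536-well plates, lung cancer cell lines held overnight at 37 °C were pinned with five library-drug doses (not always all listed) spaced by √10. With no medium change over 5 days, they were then fixed, permeabilised and Hoechst-stained in one step and imaged at 4×. MetaXpress counted nuclei, and viability is the median across plates of treated-well over vehicle-well nuclei. Acceptance needed control CV below 25% and at least one doubling.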

Kobe2602 = compound: C1=CC(=CC=C1NC(=S)NNC2=C(C=C(C=C2[N+](=O)[O-])C(F)(F)F)[N+](=O)[O-])F [Kobe2602]
How it was run: as §1

Zosuquidar = compound: O[C@@H](COc1cccc2ncccc12)CN1CCN([C@@H]2c3ccccc3[C@@H]3[C@H](c4ccccc42)C3(F)F)CC1 [Zosuquidar]
How it was run: as §1

Kobe2602 + Foretinib = compound: C1=CC(=CC=C1NC(=S)NNC2=C(C=C(C=C2[N+](=O)[O-])C(F)(F)F)[N+](=O)[O-])F [Kobe2602] + COc1cc2c(Oc3ccc(NC(=O)C4(C(=O)Nc5ccc(F)cc5)CC4)cc3F)ccnc2cc1OCCCN1CCOCC1 [Foretinib] (partner 0.25 µM)
How it was run: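 Each reported value is a median over duplicate plates. It expresses relative viability: treated-well nuclei count divided by vehicle-well nuclei count. Lung cancer cell lines in 1536-well plates were dosed by pin tool a day after seeding, alone with one drug or with a fixed anchor-drug dose plus five library-drug doses (not always all listed) in √10 steps, and nuclei were counted after 5 days.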

Row | Cell Line | relative viability (Cabozantinib; 0.02 µM) | relative viability (Cabozantinib; 0.06325 µM) | relative viability (Cabozantinib; 0.2 µM) | relative viability (Cabozantinib; 0.6325 µM) | relative viability (Cabozantinib; 2 µM) | relative viability (Kobe2602; 0.2 µM) | relative viability (Kobe2602; 0.6325 µM) | relative viability (Kobe2602; 2 µM) | relative viability (Kobe2602; 6.325 µM) | relative viability (Kobe2602; 20 µM) | relative viability (Zosuquidar; 0.01 µM) | relative viability (Zosuquidar; 0.03162 µM) | relative viability (Zosuquidar; 0.1 µM) | relative viability (Zosuquidar; 0.3162 µM) | relative viability (Zosuquidar; 1 µM) | relative viability (Kobe2602 + Foretinib; first compound 0.2 µM) | relative viability (Kobe2602 + Foretinib; first compound 0.6325 µM) | relative viability (Kobe2602 + Foretinib; first compound 2 µM) | relative viability (Kobe2602 + Foretinib; first compound 6.325 µM) | relative viability (Kobe2602 + Foretinib; first compound 20 µM)
1 | NCI-H2126 | 0.747 | 1.05 | 0.991 | 0.99 | 1.11 | 1.01 | 1.02 | 0.975 | 0.971 | 0.961 | 0.96 | 0.996 | 0.741 | 1.03 | 1.03 | 1.17 | 1.25 | 1.07 | 0.996 | 1.01
2 | PC-14 | 1.01 | 1.14 | – | 0.996 | 0.99 | 0.993 | 1.05 | 0.989 | 1.04 | 0.952 | 0.988 | 0.981 | 0.953 | 1.11 | 0.954 | 0.962 | 0.968 | 0.922 | 0.939 | 0.911
3 | EMC-BAC-2 | 0.776 | 1.1 | 1.15 | 1.04 | 1.01 | 1.02 | 1.26 | 0.947 | 1.12 | 0.999 | 1.01 | 0.955 | 0.89 | 1.12 | 0.73 | 0.938 | 1.03 | 0.99 | 1.04 | 1.02
4 | NCI-H1437 | 1.05 | 1.08 | 0.946 | 0.998 | 0.975 | 0.958 | 0.978 | 1 | 0.983 | 0.96 | 0.976 | 0.979 | 0.91 | 1.09 | 0.942 | 1.28 | 1.28 | 1.15 | 1.23 | 1.09
5 | NCI-H2405 | 0.807 | 1.11 | 1.09 | 1.01 | 1.08 | 1.04 | 1.09 | 0.964 | 1.09 | 1.14 | 1.1 | 0.942 | 0.981 | 1.03 | 0.93 | 1.05 | 1.04 | 1.01 | 1.06 | 1.07
6 | NCI-H1666 | 1.01 | 1.08 | 1.02 | 1.03 | 1.06 | 1.06 | 1.01 | 0.963 | 1.03 | 1 | 0.997 | 1.08 | 0.962 | 1.08 | 0.945 | 0.961 | 0.952 | 0.973 | 0.963 | 1.04
7 | NCI-H1993 | 0.681 | 0.787 | 0.584 | 0.734 | 0.788 | 0.877 | 0.993 | 0.876 | 0.792 | 0.87 | 0.925 | 0.879 | 0.685 | 1.06 | 0.826 | 0.789 | 0.748 | 0.689 | 0.687 | 0.642
8 | COR-L23 | 1.11 | 1.04 | 0.993 | 1 | 1.07 | 0.95 | 1.06 | 1.09 | 1.09 | 0.95 | 1.06 | 1.11 | 1.02 | 1.1 | 1.06 | 0.902 | 0.972 | 0.966 | 0.96 | 0.951
9 | LU99A | 0.889 | 1.03 | 0.979 | 0.901 | 0.822 | 0.908 | 0.998 | 0.948 | 0.939 | 1.01 | 0.984 | 0.833 | 0.971 | 1.04 | 0.912 | 0.803 | 0.874 | 0.806 | 0.822 | 0.769
10 | NCI-H596 | 1.1 | 1.17 | 1.06 | 1.01 | 0.983 | 1.02 | 0.927 | 1.01 | 0.92 | 1.11 | 1.06 | 0.806 | 1.04 | 1.14 | 1.04 | 0.851 | 0.708 | 0.957 | 0.915 | 0.846
11 | NCI-H727 | 0.852 | 1.05 | 0.808 | 0.912 | 0.961 | 1.07 | 0.952 | 0.878 | 0.85 | 0.938 | 0.971 | 1.06 | 0.8 | 1.13 | 1.01 | 0.855 | 0.991 | 0.919 | 1.1 | 0.873
12 | NCI-H1975 | 1.03 | 1.1 | 0.961 | 0.873 | 0.855 | 0.995 | 0.978 | 0.852 | 0.836 | 0.905 | 0.934 | 0.824 | 0.937 | 1.06 | 0.959 | 0.99 | 0.915 | 0.788 | 0.823 | 0.931
13 | NCI-H1355 | 0.954 | 1.11 | 0.977 | 0.96 | 0.961 | 0.914 | 1.01 | 0.911 | 0.965 | 0.959 | 0.99 | 0.967 | 0.843 | 1.06 | 0.973 | 0.953 | 0.945 | 0.921 | 0.933 | 0.95
14 | NCI-H1755 | 0.994 | 1.04 | 0.977 | 0.923 | 0.857 | 0.962 | 0.971 | 0.993 | 0.985 | 0.994 | 0.995 | 1.01 | 0.94 | 1.05 | 1.01 | 0.948 | 0.914 | 0.915 | 0.879 | 0.868
15 | NCI-H2009 | 1.08 | 1.06 | 1.08 | 1.07 | 1.15 | 1.02 | 1.08 | 0.966 | 1.04 | 0.99 | 1.02 | 0.945 | 0.929 | 1.06 | 0.971 | 1.15 | 1.32 | 1.21 | 1.19 | 1.19
16 | NCI-H1395 | 0.797 | 1.23 | 1.01 | 0.938 | 0.815 | 0.978 | 1.22 | 0.893 | 1.06 | 0.976 | 0.914 | 0.869 | 0.717 | 1.18 | 0.891 | 0.935 | 0.976 | 0.976 | 0.991 | 1.12
